Target: T1, ribonuclease III (RNase III) (Escherichia coli, UniProt P0A7Y0)
T1 sequence (P0A7Y0 1-226): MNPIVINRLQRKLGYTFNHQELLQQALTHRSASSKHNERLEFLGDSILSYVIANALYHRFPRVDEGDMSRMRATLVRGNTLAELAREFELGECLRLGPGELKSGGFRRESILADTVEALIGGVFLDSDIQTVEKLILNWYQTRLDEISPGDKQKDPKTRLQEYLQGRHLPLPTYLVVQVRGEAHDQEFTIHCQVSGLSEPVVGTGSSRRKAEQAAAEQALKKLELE
Experiment: cleavage of […]-labeled R1.[…] RNA by purified RNase III, gel assay, […] Mg2+
Format: biochemical

IC50: 14 ± 2 µM
SMILES: O=C1Cc2ccccc2C(=O)N1O [compound 1, 2-hydroxy-4H-isoquinoline-1,3-dione]

Source: article PMC549391 (Nucleic Acids Research, 2005)
